Laboratory results reported in ChEMBL document CHEMBL1201862, “PubChem BioAssay data set” (2004).
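Step 1: Grow cells in 96-well plates. Step 2: Expose to compound for 48 hours at 5 concentrations. Step 3: Interpolate endpoints linearly; if unreached, use highest concentration. Here, GI50 denotes the concentration required for 50% inhibition of growth.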 Calls of active or inactive are those of the source. No stated cut-off is given here; in the data, active = GI50 up to about 1.1 µM and inactive = higher.

Legend:
Test in all cases: NCI tumour cell line growth inhibition, 48 h
[1] = test system: 786-0
[2] = test system: CAKI-1
[3] = test system: DU-145
[4] = test system: EKVX
[5] = test system: HCC 2998
[6] = test system: HL-60
[7] = test system: HOP-92
[8] = test system: K562
[9] = test system: MOLT-4
[10] = test system: Malme-3M
[11] = test system: PC-3
[12] = test system: RXF 393
[13] = test system: SF-539
[14] = test system: SK-MEL-5
[15] = test system: SR
[16] = test system: SW-620
[17] = test system: U-251
[18] = test system: UACC-257
[19] = test system: UACC-62
[20] = test system: UO-31

Measured: GI50

CC1CC(C)(O)CC(C(O)CC2CC(=O)NC(=O)C2)C1=O (stereo not given) [RESACTIN A]
active: [1] 25.2 nM | [2] < 10 nM | [3] 46.1 nM | [4] 50.5 nM | [5] 44.1 nM | [6] 39.2 nM | [7] < 20 nM | [8] 30.9 nM | [9] 15.1 nM | [10] 54.6 nM | [11] 46.5 nM | [12] 34.4 nM | [13] 19.7 nM | [14] 13.2 nM | [15] 25.1 nM | [16] 29.4 nM | [17] 31.3 nM | [18] 54.1 nM | [19] 41.3 nM | [20] 55 nM
